Data set [1] deals with nasal airway epithelium. As to the kind of experiment: Adenoviral (AdlLacZ) LacZ gene transfer into mouse nasal airway after detergent pre-treatment. It is filed as in vivo, mice. To be noted: 4 μl detergent (SDS 0.25%, ZWIT 0.14%, DEOXY 0.17%) 1 h before AdlLacZ 1×10^9 pfu; 3 days; FIG. 7. The protocol: The detergents tested were Sodium n-dodecyl sulfate (SDS), (an anionic detergent) at 0.25%, Zwittergent 3-14: N-Tetradecylsulfobetaine (ZWIT) (a zwitterionic detergent) at 0.14%, Cetyltrimethylammonium bromide (CTAB) (an ionic detergent) at 0.15%, Deoxycholic Acid (DEOXY) (an ionic detergent) at 0.17%, with phosphate buffered saline as a control.
Detergents were made up fresh to nominated concentrations. A single 4 μl dose was used per mouse (all were approximately 20 gm body weight). An Adenoviral vector (AdlLacZ) dose of 1×10^9 pfu in 20 μl. Mice were anaesthetised with Xylamine/Ketamine i.m.; then suspended vertically (hanging on dorsal incisor teeth). The detergent dose was instilled into the nostril opening in one bolus via a micropipettor.
The mouse was set aside for one hour; re-anaesthetised as needed, 1 hour later 20 μl of viral vector was instilled into the same nostril. The mouse was allowed to recover and returned to caging. Three days later the mice were killed with CO2 excess, head removed and the nasal airways were flushed with fixative. These were taken through standard “X-gal” processing to reveal blue stained cells that represent LacZ gene transfer. Cells were processing to wax sections and stained with Safranin-O or haemotoxylin/oesin. Stained cells present along the perimeter of 3 standard cross-sections in the treated nasal airway were counted. […]

Data set [2] concerns nasal airway epithelium. The data set is described as follows: Histological injury after dosing with LPC alone. It is filed as in vivo, mouse. Conditions: 1% LPC alone.
Data set [3] deals with CFTR-mediated chloride secretion. The data set is described as follows: Nasal TPD/ΔPD measurement of CFTR function after LVCFTR dosing. Format: in vivo. To be noted: homozygote cftr^tmlUnc mice, 1% LPC 1 h prior to PBS (control) instillation; 7 days later. The procedure: C57B1/6 and cftr^tmlUnc mice (Snouwaert et al., 1992) were used under the approval of both the Women's and Children's Hospital and the University of Adelaide Animal Ethics Committees. C57B1/6 mice (6-7 weeks of age), or cftr^tmlUnc mice (8-20 weeks of age) were anaesthetised intramuscularly with 1 μl/g and 0.7 μl/g body weight respectively of a 3:2 mixture of xylazil (20 mg/ml):ketamine (100 mg/ml) respectively. Body temperature was maintained during anaesthesia with a heat pad, or heat lamp and during the recovery period the mice were placed in a 35° C. air chamber. For dosing, mice were suspended from their dorsal incisors (hindquarters supported) and pre-treatment solutions (4 μl of LPC (Sigma L-4129), or polidocanol (Sigma P-9641), prepared as w/v solutions in PBS) delivered as a bolus into the right nostril using a gel-loading tip (Finnpippette). […] The mice were monitored for respiratory distress and any loss of treatment solution was noted. […]
CFTR gene expression: Mice were anaesthetised, suspended from their dorsal incisors (hindquarters supported) and a subcutaneous needle-agar bridge (as reference electrode) was placed in the abdomen. […] TPD values were measured (blinded) from chart paper recordings, and the ΔPD value was calculated by subtracting the TPD value recorded under basal conditions from the TPD value measured under low-chloride conditions. […]

Data set [4] deals with nasal airway surface epithelium. The data set is described as follows: Transepithelial potential difference (TPD) after penetrating agent, damage of epithelia. Format: in vivo, mice. To be noted: for recovery of TDP function: longer time course, FIG. 11. The text has this: The method of choice for assessing an appropriate level of damage is by the measurement of transepithelial potential difference (TDP) (Middleton et al., 1994; Knowles et al., 1995; Lee et al., 1999). In general, damage to epithelium with penetrating agents cause at least opening of the tight junctions and this causes the resident negative TPD on the airway surface to go toward zero. If there is exfoliation (that is substantial damage) then the TPD goes to zero quickly and takes several days to return to normal because the epithelia cells have been stripped off and have to regenerate.
Measurement of TPD was performed under zero-chloride perfusion to give a larger baseline TPD value from which to measure change. Under these conditions the values are typically around −20 mV compared to about −5 mV if normal perfusion saline is used. Mice are anaesthetised, TPD cannula is inserted, then the detergent dose is instilled in the same nostril, the effect is then followed in this anterior part of the nose. The methods used for measuring TDP are largely as described in Parsons et al., 1998. For method for use in human see Middleton et al., 1994 and Knowles et al., 1995.
The dosage of detergent used is 4 μl of PBS, PDOC of LPC and is in line with methods used in the above examples. The solutions of detergent use are 0.01, 0.1 and 1.0%. The TDP value was determined 5 minutes after administration of the detergent. The values are presented graphically in FIG. 8. […] A score of 100% represents the pretest TDP value. […] A TDP value of less than about 60% is though to be preferable.
The same doses of LPC were used as for experiment 1 but TDP was measured at 2, 5 and 10 minutes after administration. The data are presented graphically in FIG. 9. […] Thus should 0.01% LPC be used for treatment of the lung then lentivirus should be delivered within 10 minutes.
This uses that same doses of PDOC as in experiment 1 and as in experiment 2 TDP was measured at 2, 5 and 10 minutes after administration. The data from this experiment are presented graphically in FIG. 10.
TDP was measured over a longer time course using PDOC as the penetrating agent. The doses used in this experiment were (per mouse) 10 μl of 1.0% PDOC, 4 μl of 1.0% PDOC and 4 μl of 0.1% PDOC. […] A recovery of TDP function within about 1 day is considered to be transient.

The subject of data set [5] is nasal airway epithelium. As to the kind of experiment: LV-mediated LacZ gene transfer into mouse nasal airway (X-gal, count of LacZ positive cells). Format: in vivo, C57B1/6 mice. To be noted: for LacZ positive cells ± SEM: 3 standard cross-sections, n=3.
The test system of data set [6] is freshly-excised mouse nasal airway epithelium. Conditions: unpublished data.
The subject of the next data set is MDCK. The data set is described as follows: Effect of detergent on viral gene transfer in vitro, polarised cells. It is filed as cell-based. To be noted: AdV5CMVLacZ vector added 10, 30 and 60 mins following polidocanol treatment, P<0.05. The protocol: (§1) The effect of detergents (polidocanol and lysophospatidylcholine) on the level of viral gene transfer were firstly evaluated in vitro.
(§2) Initial experiments made use of the AdV5CMVLacZ vector (a generous gift from Dr. R. C. Boucher). […] This dose of polidocanol was assessed on polarised cells (MDCK) and also non-polarised cells (A549). The AdV vector was added at 10, 30 and 60 mins following treatment. […] When the experiments were repeated using the LV vector we found the same effect.

The test system of a further data set is A549. As to the kind of experiment: Effect of detergent on viral gene transfer in vitro, non-polarised cells. Format: cell-based. To be noted: AdV5CMVLacZ vector added 10, 30 and 60 mins following polidocanol treatment. The protocol: as §1, §2
The mark [7] stands for this setting: 0.1% pre-treatment (4 μl) 1 h before 20 μl LVLacZa (6×10^4 NIH3T3-TU), 7 days.
Where [8] appears, read: 1% pre-treatment (4 μl), then PBS instead of vector, 7 days.

Consider `CCCCCCCCCCCCOS(=O)(=O)[O-].[Na+]` [SDS, Sodium n-dodecyl sulfate], for which, in the data set on nasal airway epithelium [1], the “numbers of transductants over the control PBS, respiratory cells” value is “considerable increase in numbers of transductants”.

As to `CCCCCCCCCCCCCC[N+](C)(C)CCCS(=O)(=O)[O-]` [Zwit, N-Tetradecylsulfobetaine], the “numbers of transductants over the control PBS, respiratory cells” value in the data set with nasal airway epithelium [1] is reported as “considerable increase in numbers of transductants”.

For lysophosphatidylcholine [LPC], the “histological injury observed immediately after dosing” value with nasal airway epithelium [2] is on record as “limited areas of deciliation or exfoliation found anteriorly close the dosed site”. Besides, the ΔPD entry in data set [3] is “+8±3.2 mV”. In data set [4] (4 μl of 0.01% LPC, after 10 minutes, FIG. 9), the “TPD relative to pretest TPD” value was “not significantly different to pretest TPD”. For the same molecule, the entries for the “LacZ positive cells ± SEM” value in the data set on nasal airway epithelium [5] (setting [7]) and in the data set on nasal airway epithelium [5] (setting [8]) were 4.3 ± 0.7 and 0.0 ± 0.0, respectively. Also, the “increase in the level of LV-mediated transduction compared to pre-treatment with 1% polidocanol” value in the data set on nasal airway epithelium [5] (1% LPC pre-treatment, LVLacZa, 7 days) came out at 4 fold. Further, the “effect on cilial beat” value in data set [6] was “dose-dependant reversibility of reduction in cilial beat”.

Take polybrene: in the data set with nasal airway epithelium [5] (1% LPC pre-treatment, LVLacZa vector preparation containing 4 μg/ml polybrene, 7 days), the “number of LacZ positive cells” value came out at 5.0±1.0. For the same molecule, the “decrease in the number of LacZ positive cells on inclusion of polybrene in the LVLacZa preparation” value in the data set on nasal airway epithelium [5] (1% LPC pre-treatment, vs polybrene-free LVLacZa, P=0.002) is given as 4 fold.

On to polyoxyethylene 9-lauryl ether [PDOC], for which the “gene transfer when vector added one hour after treatment compared to shorter time points” value in the data set with MDCK is given as “significantly improved”. Besides, the “effect on TDP value” in data set [4] (4 μl of 0.01, 0.1 and 1.0% solutions, 5 minutes after administration, FIG. 8) is “greater effect on TDP value than LPC”. The “recovery of TDP function” value in data set [4] (4 μl of 0.1% PDOC) is listed as “rapidly recovers”; in data set [4] (10 μl of 1.0% PDOC and 4 μl of 1.0% PDOC (first two doses)), “extended”. The “LacZ positive cells ± SEM” value in the data set on nasal airway epithelium [5] (setting [7]) stood at 2.7 ± 0.3; in the data set with nasal airway epithelium [5] (1% pre-treatment (4 μl) 1 h before 20 μl LVLacZa (6×10^4 NIH3T3-TU), polybrene-free, 7 days) it was 5.3 ± 1.3; in the data set with nasal airway epithelium [5] (setting [8]), 0.0 ± 0.0. Further, the “level of gene transfer between vector instillation times” value with A549 was “no apparent difference”.

Source of the values: patent US20040037780A1, “Respiratory delivery for gene therapy and lentiviral delivery particle” (priority 2001, published 2004).
